Structures can show the parent of a compound that is named as a salt.
Test system: children and adolescents with autistic spectrum disorders
Assay: Open-label trial of Memantine in children and adolescents with autistic spectrum disorders
Assay type: in vivo, human
Method: In support of the present invention, an experiment was conducted to evaluate the use of Memantine in children and adolescents with autistic spectrum disorders (hereinafter referred to as “ASD”). […] A range of 2.5-10 mg per day of Memantine was applied as an open-label trial in children with ASD. Clinical observations of global function in language and/or behavior pattern were assessed. Thirty patients, including 24 males and 6 females with an average age of 8.92 years and meeting DSM-IV criteria for ASD, were treated with Memantine for greater than 8 weeks. The patients were evaluated using a global clinical improvement scale rating for improvement in language and behaviors based on parental observation and clinical appearance. Improvements were rated as follows: moderate to significant, mild to moderate, or no improvement. The therapy ranged from between 8 to 40 weeks, with an average duration of therapy of 18 weeks and an average daily dosage of 8.1 mg. After the thirty patients were treated for more than 2 months with Memantine, parents reported improvements in 26 of the 30 patients in one or more categories: attention, motor planning, language function (both receptively and expressively), and self-stimulatory behaviors. Moderate to significant improvement occurred in 16 of the 26, with milder improvement in 10 of the 26.

[1] = open-label, 2.5-10 mg per day, treated more than 2 months, global clinical improvement scale

CC12CC3CC(C)(C1)CC(N)(C3)C2 [Memantine, 1-amino-3,5-dimethyladamantane hydrochloride]
frontal executive functions (attention, speech expression, perseveration) (open-label trial in ASD, overall clinical observation): appears to clearly improve frontal executive functions
side effects (open-label, 2.5-10 mg per day, 30 patients treated more than 2 months): No side effects were reported
patients with parent-reported improvements in one or more categories (attention, motor planning, language function, self-stimulatory behaviors) (open-label, 2.5-10 mg per day, average 8.1 mg daily, treated more than 2 months (8 to 40 weeks), global clinical improvement scale): 26 of the 30 patients
patients with milder improvement [1]: 10 of the 26
patients with moderate to significant improvement [1]: 16 of the 26

From US20090048348A1, “METHOD FOR TREATING AUTISM” (Forest Laboratories Holdings Ltd., priority 2004, published 2009)
